From PMC2151574 (The Journal of General Physiology, 2006)
Where “and” joins values, the source holds several entries; their conditions need not be identical. Equal entries are not always repeated. Entries after “also recorded” stand apart in the source; their conditions may differ. Where two headings read alike, the source gives them in different places. One block for each molecule: values may come before it. Where a SMILES comes first, the peptide text is derived from it.

How the values were obtained:
[1] = target: wild-type BK channel (mslo, mbr5) (Mus musculus, UniProt Q08460); test: Macroscopic block of wild-type BK currents, inside-out patch clamp; type: cell-based; details: for time constant of block, τfast (double exponential fit) / time constant of block, τslow (double exponential fit): inside-out patch, 22°C, holding potential −80 mV
[2] = target: T1, E321N, E324N mutant BK channel (Mus musculus, UniProt Q08460, E386N/E389N); type: cell-based; details: for decrease of apparent affinity of block in E321N, E324N mutant vs wild type: macroscopic currents
[3] = target: S6/2-KcsA BK channel construct (Mus musculus, UniProt Q08460, A378T/A381G/E386A/E389T/I387L/I388A/I391F/L377I/L390W/M379S/P385A/S382L/V384T/Y383V); type: cell-based
[4] = target: T2, wild-type BK channel (mslo) (Mus musculus, UniProt Q08460); test: Single channel recordings, wild-type BK channel; type: cell-based; details: n = 5
[5] = target: T1, E321N, E324N mutant BK channel; test: Single channel recordings, E321N, E324N mutant; type: cell-based
[6] = tested on: S6/2-KcsA BK channel construct; type: cell-based, mouse
BK channels [7] = details: cited from earlier work; for time dependence of block of BK currents: internal
[8] = target: T2, wild-type BK channel (mslo); test: Deactivation; type: cell-based
[9] = target: T2, wild-type BK channel (mslo); test: Competition between TBA and EBP on macroscopic BK currents; type: cell-based
[10] = target: T2, wild-type BK channel (mslo); test: State dependence of EBP block in High and Low Ca2+; type: cell-based; details: 3 μM EBP
BK channels [11] = details: cited from earlier work
Shaker channels = details: ref Murrell-Lagnado and Aldrich, 1993b; cited from earlier work
[12] = tested on: Shaker channel (ShB Δ6-46); test: Macroscopic block of Shaker currents, inside-out patch clamp; type: cell-based; details: identical conditions, holding potential −120 mV
[13] = tested on: other K^+ channels and CNG channels; details: most other K^+ channels; cited from earlier work
[14] = EBP at around half block concentration, 120 mV
[15] = 500 μM TBA on top of 3 μM EBP, compared with 3 μM EBP alone
[16] = when roughly half of the channels are blocked

Sequence of wild-type BK channel (mslo, mbr5) (Q08460 66-1209 limits assumed): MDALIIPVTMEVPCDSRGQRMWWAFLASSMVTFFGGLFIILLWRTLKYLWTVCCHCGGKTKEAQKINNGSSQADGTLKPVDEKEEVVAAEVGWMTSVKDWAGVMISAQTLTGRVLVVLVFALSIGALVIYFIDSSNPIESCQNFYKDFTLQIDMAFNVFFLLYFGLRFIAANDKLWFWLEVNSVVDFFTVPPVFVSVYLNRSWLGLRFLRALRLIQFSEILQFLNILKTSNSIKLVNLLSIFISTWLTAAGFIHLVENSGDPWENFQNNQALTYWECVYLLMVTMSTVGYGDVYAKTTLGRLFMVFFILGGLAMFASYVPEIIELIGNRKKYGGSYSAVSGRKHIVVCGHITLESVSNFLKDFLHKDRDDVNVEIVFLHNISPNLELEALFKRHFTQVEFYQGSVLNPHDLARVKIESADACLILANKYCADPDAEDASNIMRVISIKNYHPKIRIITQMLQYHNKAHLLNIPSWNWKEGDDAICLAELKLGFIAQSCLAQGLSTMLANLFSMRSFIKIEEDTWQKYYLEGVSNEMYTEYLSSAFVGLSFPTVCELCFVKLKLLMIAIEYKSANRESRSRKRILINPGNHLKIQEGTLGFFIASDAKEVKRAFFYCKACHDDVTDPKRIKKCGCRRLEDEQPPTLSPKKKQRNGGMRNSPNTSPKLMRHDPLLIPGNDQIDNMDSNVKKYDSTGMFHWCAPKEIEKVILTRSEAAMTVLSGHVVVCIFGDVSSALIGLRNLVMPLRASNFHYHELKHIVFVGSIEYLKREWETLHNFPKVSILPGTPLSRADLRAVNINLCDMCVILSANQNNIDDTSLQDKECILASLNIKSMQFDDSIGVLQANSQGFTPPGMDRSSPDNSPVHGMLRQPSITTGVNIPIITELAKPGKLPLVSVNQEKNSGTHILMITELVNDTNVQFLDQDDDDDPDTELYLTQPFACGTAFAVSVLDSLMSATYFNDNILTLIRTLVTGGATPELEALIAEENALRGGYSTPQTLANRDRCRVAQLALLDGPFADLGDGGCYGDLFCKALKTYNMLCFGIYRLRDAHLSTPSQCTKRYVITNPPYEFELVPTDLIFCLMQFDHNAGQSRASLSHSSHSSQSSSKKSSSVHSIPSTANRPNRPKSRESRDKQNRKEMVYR
T2 sequence (Q08460 66-1209 limits assumed): as above
T1 sequence (Q08460 66-1209 E386N/E389N limits assumed): as the sequence (Q08460 66-1209 limits assumed) above, with E321N, E324N counted along it
Sequence of S6/2-KcsA BK channel construct (Mus musculus, UniProt Q08460, A378T/A381G/E386A/E389T/I387L/I388A/I391F/L377I/L390W/M379S/P385A/S382L/V384T/Y383V) (Q08460 28-1196 isoform Q08460-2 with the stated changes): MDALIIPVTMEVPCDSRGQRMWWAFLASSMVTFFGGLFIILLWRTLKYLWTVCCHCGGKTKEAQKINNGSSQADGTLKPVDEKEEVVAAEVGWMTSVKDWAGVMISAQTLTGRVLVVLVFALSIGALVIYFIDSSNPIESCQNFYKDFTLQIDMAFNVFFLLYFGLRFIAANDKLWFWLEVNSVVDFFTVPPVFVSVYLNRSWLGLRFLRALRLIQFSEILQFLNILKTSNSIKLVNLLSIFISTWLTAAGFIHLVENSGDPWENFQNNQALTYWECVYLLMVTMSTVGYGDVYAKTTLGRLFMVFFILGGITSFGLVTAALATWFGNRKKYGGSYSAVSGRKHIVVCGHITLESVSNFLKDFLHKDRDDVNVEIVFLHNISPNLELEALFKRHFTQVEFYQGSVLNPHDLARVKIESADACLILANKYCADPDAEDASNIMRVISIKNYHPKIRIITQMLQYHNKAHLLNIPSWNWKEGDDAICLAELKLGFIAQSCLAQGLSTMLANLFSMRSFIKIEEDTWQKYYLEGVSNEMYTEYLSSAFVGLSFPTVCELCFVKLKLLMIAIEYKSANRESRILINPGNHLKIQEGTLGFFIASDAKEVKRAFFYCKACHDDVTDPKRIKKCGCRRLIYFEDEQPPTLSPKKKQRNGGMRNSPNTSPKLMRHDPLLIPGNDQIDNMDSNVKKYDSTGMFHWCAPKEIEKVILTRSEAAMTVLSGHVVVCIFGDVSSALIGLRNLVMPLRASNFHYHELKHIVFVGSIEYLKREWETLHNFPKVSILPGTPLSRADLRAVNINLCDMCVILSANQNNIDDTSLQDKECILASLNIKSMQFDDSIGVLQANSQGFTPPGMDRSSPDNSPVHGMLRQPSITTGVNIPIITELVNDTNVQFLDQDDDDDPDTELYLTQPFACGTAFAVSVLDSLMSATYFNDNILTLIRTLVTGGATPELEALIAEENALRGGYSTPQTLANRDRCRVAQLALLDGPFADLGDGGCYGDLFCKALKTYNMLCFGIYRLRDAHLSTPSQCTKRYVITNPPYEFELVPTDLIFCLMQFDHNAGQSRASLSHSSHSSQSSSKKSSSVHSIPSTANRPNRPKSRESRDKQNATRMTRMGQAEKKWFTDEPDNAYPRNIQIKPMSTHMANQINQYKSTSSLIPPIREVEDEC

- Hill coefficient n (C10) ([1]; wild type, 100 mV, six patches): 0.97
- affinity of C10 relative to that of TBA ([1]; wild-type BK channels): ~30 times
- Hill coefficient n (C10) ([2]; E321N, E324N mutant, 100 mV, eight patches): 1.01
- decrease of apparent affinity of block in E321N, E324N mutant vs wild type [2]: ~2.5 fold
- affinity of C10 vs TBA, S6/2-KcsA [3]: lower affinity than TBA
- decrease of apparent affinity of C10 in S6/2-KcsA vs wild type [3]: almost two orders of magnitude
- block of macroscopic S6/2-KcsA currents by C10 ([3]; 1 mM C10): about half the macroscopic currents
- Hill coefficient n (C10) ([3]; S6/2-KcsA, 100 mV, five patches): 0.95
- association rate ([4]; 15 μM C10, mean ± SD): 9.0 ± 1.6 ms^−1
- dissociation rate of block (mean shut dwell time) ([4]; 120 mV, mean ± SD): 6.4 ± 0.5 ms^−1
- association rate ([5]; E321N, E324N mutant, 40 μM C10, mean ± SD, n = 5): 12.5 ± 1.1 ms^−1
- dissociation rate of block (mean shut dwell time) ([5]; E321N, E324N mutant, 120 mV, mean ± SD, n = 5): 7.8 ± 0.6 ms^−1
Molecule: CCCCCCCCCC[N+](CC)(CC)CC [C10, Decyltriethylammonium]
- block events in single S6/2-KcsA channels ([6]; 1 mM C10): too fast to resolve
- time dependence of block of BK currents (BK channels [7]; ref Li and Aldrich, 2004): without apparent time dependence

Molecule: CSCC[C@H](NC(C)=O)C(=O)N[C@@H](C)C(=O)N[C@@H](C)C(=O)N[C@H](C(=O)N[C@@H](C)C(=O)NCC(=O)N[C@@H](CC(C)C)C(=O)N[C@@H](Cc1ccc(O)cc1)C(=O)NCC(=O)N[C@@H](CC(C)C)C(=O)NCC(=O)N[C@@H](CCCCN)C(=O)N[C@@H](CCCCN)C(=O)N[C@@H](CCCNC(=N)N)C(=O)N[C@@H](CCC(N)=O)C(=O)N[C@@H](Cc1c[nH]cn1)C(=O)N[C@@H](CCCNC(=N)N)C(=O)N[C@@H](CCCCN)C(=O)N[C@@H](CCCCN)C(=O)N[C@@H](CCC(N)=O)C(N)=O)C(C)C [EBP] (Ac-MAAVAGLYGLGKKRQHRKKQ-NH2)
- rising phase of BK currents (activation) vs control ([1]; 1 μM EBP, 120 mV): largely unchanged compared with control
- time constant of block, τ (single exponential fit) ([1]; 1 μM EBP, 120 mV, macroscopic): 17.6 ms
- fraction of remaining current (I/Io), voltage dependence ([1]; 1 μM EBP, end of 60-ms pulses, n = 6): decreases with increased membrane potentials
- block of wild-type BK currents ([1]; 3 μM EBP): nearly complete block
- single channel openings at steady-state block ([1]; 3 μM EBP): single channel openings to the full current level are clearly evident
- time constant of block, τ (single exponential fit) ([1]; 3 μM EBP, 120 mV, macroscopic): 4.5 ms
- time constant of block, τ (single exponential fit) ([1]; 10 μM EBP, 120 mV, macroscopic): 1.1 ms
- 1/τ of block, concentration dependence ([1]; 1, 3 and 10 μM EBP, positive voltages (≥40 mV), n = 6): linearly dependent on the concentration of EBP
- time constant of the single exponential decay ([1]; low concentration of EBP blocking roughly half of the channels (unpublished data)): ~100 ms
- association rate constant (Kon), voltage dependence ([1]; slope of 1/τ vs EBP concentration): larger depolarizations resulting in higher association rate constants
- Hill coefficient n (EBP) ([1]; wild type, 120 mV, 500 ms pulses, 5 patches): 1.16
- block of E321N, E324N currents by EBP ([2]; 100 μM EBP, 120 mV): < 60%
- decrease of apparent affinity of EBP block in double mutant vs wild type ([2]; 120 mV, from fitted dose responses): more than two orders of magnitude
- Hill coefficient n (EBP) ([2]; E321N, E324N mutant, 120 mV, 11 patches): 0.72
- time constant of dominating component of block [2, 14]: a few milliseconds
- time constant of very small component of block [2, 14]: hundreds of milliseconds
- block of S6/2-KcsA current by EBP ([3]; 100 μM EBP, 120 mV, mean ± SD, n = 5): 23.0 ± 0.5% and ~20%
- apparent affinity of EBP for S6/2-KcsA vs E321N, E324N double mutant ([3]; 120 mV): about threefold lower
- apparent affinity of EBP for S6/2-KcsA vs wild-type BK ([3]; 120 mV): more than three orders of magnitude lower
- duration of block events, single E321N, E324N channel ([5]; 100 μM EBP, 80 mV): mainly short block events lasting a few milliseconds
- block events in single S6/2-KcsA channels ([6]; 100 μM EBP, 120 mV): fails to result in resolvable block events
- dissociation rate of EBP in S6/2-KcsA channels vs TBA ([6]; 100 μM each): even faster than that of TBA
- deactivation of BK channels ([8]; 3 μM EBP, tail current compared with control): slowed compared with the control trace; also recorded: Deactivation of BK channels is slowed by EBP
- normalized tail current time constant, τslow (double exponential fit) ([8]; 3 μM EBP, −160 mV after depolarization to 120 mV): 7.3 ms
- normalized tail current time constant, τfast (double exponential fit) ([8]; 3 μM EBP, −160 mV after depolarization to 120 mV (control τ = 0.25 ms)): 0.37 ms
- tail current time constant, slower component ([8]; EBP, negative potentials, relatively voltage insensitive): ~10 ms
- tail current time constant, fast component ([8]; EBP, −60 mV): ~2 ms
- tail current time constant, fast component ([8]; EBP, −160 mV): ~0.3 ms
- off rate at negative potentials ([8]; from modeling tail currents with a C↔O↔B model): ~100 s⁻¹
- time constant of block, τ ([9]; 3 μM EBP alone): 2.8 ms
- time constant of block, τ ([9]; 3 μM EBP plus 500 μM TBA): 5.6 ms
- competition of TBA and EBP binding ([9]; 3 μM EBP, 500 μM TBA, positive potentials): mutually exclusive
- fraction of preblock, Po ∼0 ([10]; High Ca^2+, lower end of range −80 to 80 mV): ~0
- relative amplitude of the test current, change with prepulse ([10]; Low Ca^2+, −80 to 80 mV, Po ∼0): doesn't change much
- state dependence of block ([10]; High and Low Ca^2+ solutions): much more favored in an open configuration than a closed one; also recorded: peptide binding is much more favored in an opened BK channel
- type of block events, single BK channels (BK channels [11]; near 0 mV, ref Toro et al., 1994): mostly short block events; also recorded: predominantly short block events
- affinity for BK channels (BK channels [11]; single channel, ref Toro et al., 1994): higher affinity for BK channels than ShBP
- affinity for Shaker channels vs native ShBP (Shaker channels): much higher affinity for Shaker channels
- association rate for Shaker channels vs native ShBP (Shaker channels): significantly higher association rate for Shaker channels than native ShBP

- Hill coefficient n (TBA) ([1]; wild type, 120 mV, five patches): 0.87
- block of mutant currents by TBA ([2]; 20 mM TBA, E321N, E324N mutant): ~100%
- Hill coefficient n (TBA) ([2]; E321N, E324N mutant, 120 mV, nine patches): 0.89
- decrease of apparent affinity of block in E321N, E324N mutant vs wild type [2]: ~2.5 fold
- affinity of TBA in S6/2-KcsA vs wild-type BK [3]: almost exactly the same affinity
- block of macroscopic S6/2-KcsA currents by TBA ([3]; 100 μM TBA, 120 mV): ~20%
- block of mutant currents by TBA ([3]; 20 mM TBA, S6/2-KcsA): ~100%
- Hill coefficient n (TBA) ([3]; S6/2-KcsA, 120 mV, five patches): 0.97
- single channel block in mutant vs wild type ([5]; 1 mM TBA in E321N, E324N mutant vs 0.4 mM in wild type, 120 mV): qualitatively very similar
- reduction of peak current by added TBA [9, 15]: about half
- slowing of time-dependent EBP block by added TBA [9, 15]: about twofold
Molecule: CCCC[N+](CCCC)(CCCC)CCCC [TBA, Tetrabutylammonium]
- sensitivity of S6/2-KcsA channels to TBA ([3]; voltage ramp −80 to 200 mV, 0.3 and 10 mM TBA): sensitive to millimolar concentrations of TBA
- block of single S6/2-KcsA channels vs wild-type BK ([6]; 0.4 mM TBA): kinetically very similar
- inhibition of BK current at steady state (BK channels [7]; 500 μM TBA, positive potentials, ref Li and Aldrich, 2004): ~50%
- block of BK channels (BK channels [7]; internal TBA, "our previous study", ref Li and Aldrich, 2004): fast block of BK channels at submillimolar concentrations
- time dependence of block of BK currents (BK channels [7]; ref Li and Aldrich, 2004): without apparent time dependence

Molecule: CCCC[N+](CCCC)(CCCC)Cc1ccc(C(=O)c2ccccc2)cc1 [bbTBA]
- access of blocker to BK channels (BK channels [7]; ref Wilkens and Aldrich, 2006): may not be restricted by a cytoplasmic gate

Molecule: MAAVAGLYGLGEDRQHRKKQ [ShBP]
- time constant of block, τfast (double exponential fit) ([1]; 30 μM ShBP, macroscopic): 2.0 ms
- time constant of block, τslow (double exponential fit) ([1]; 30 μM ShBP, macroscopic): 13.1 ms
- block of wild-type BK currents by ShBP ([1]; 100 μM ShBP, 120 mV): ~70%
- time constant of block, τfast (double exponential fit) ([1]; 100 μM ShBP, macroscopic): 0.7 ms
- time constant of block, τslow (double exponential fit) ([1]; 100 μM ShBP, macroscopic): 5.2 ms
- type of block events in BK channels ([1]; native ShBP): mainly short block events
- character of block events ([1]; when about half of the currents are blocked, macroscopic): the majority of the block events are short lived
- time constant of block, faster of two components [1, 16]: ~2 ms
- time constant of block, slower of two components [1, 16]: ~10 ms
- block of E321N, E324N currents by ShBP ([2]; 100 μM ShBP, 120 mV (unpublished data), roughly estimated): ~20%
- decrease in apparent affinity of ShBP by the double mutation ([2]; 120 mV): ~10 fold
- block of Shaker compared with BK currents [12]: slower block and higher apparent affinity
- lifetime of short block events, single BK channels (BK channels [11]; dominating, ref Foster et al., 1992, Toro et al., 1992, 1994): a few milliseconds
- lifetime of long block events, single BK channels (BK channels [11]; rare, ref Foster et al., 1992, Toro et al., 1992, 1994): hundreds of milliseconds
- dissociation rate for the short block of BK channels (BK channels [11]; ref Foster et al., 1992, Toro et al.): ~100 s⁻¹
- dissociation rate, Shaker channels (Shaker channels): ~10 s⁻¹
- type of block events in other K+ channels [13]: only long block events
